From patent publication US20220380801A1, “TRIPARTITE SYSTEMS FOR PROTEIN DIMERIZATION AND METHODS OF USE” (priority 2019, published 2022)
Entries after “also recorded” stand apart in the source; their conditions may differ.

Tests used:
[1] = tested on: HCV NS3/4A PR (S139A):PRSIM_23; assay: HTRF complex formation with alternative HCV PR inhibitors; assay type: binding, Hepatitis C virus subtype 1a; settings: simeprevir substituted with alternative inhibitor
Protocol: (§1) scFv and Tn3 PRSIM binding molecules that were selective for the HCV NS3/4A PR (S139A) were identified in homogeneous time-resolved fluorescence (HTRF®) assays run in parallel to measure binding in the presence and absence of simeprevir. HCV NS3/4A PR (S139A), and serial dilutions of purified PRSIM binding molecules, were prepared in assay buffer (PBS containing 0.4 M potassium fluoride and 0.1% BSA). Streptavidin cryptate (Cisbio) was pre-mixed with either anti-FLAG XL665 (to detect the Tn3 molecules) or anti-c-myc XL665 (to detect the scFv molecules) in assay buffer. For each assay 2.5 μl of sample titration was added to 2.5 μl HCV NS3/4A PR (S139A) and 2.5 μl of pre-mixed detection reagents. Either 2.5 μl simeprevir or 2.5 μl of a DMSO blank were also added to each well. […] Assay plates were incubated overnight at 4° C., prior to reading the time resolved fluorescence at 620 nm and 665 nm emission wavelengths using a PerkinElmer Envision plate reader. Data was analysed by calculating % Delta F values for each sample. Delta F was determined according to equation 1.
(§2) There are several small molecule inhibitors that are known to bind the HCV NS3/4A protease and have been approved for human use. A panel of such small molecules were assessed for their ability to induce complex formation between HCV NS3/4A PR (S139A) and PRSIM_23 or PRSIM_57. […]

[2] = tested on: HCV NS3/4A PR (S139A):PRSIM_57; assay: as above; assay type: binding, Hepatitis C virus subtype 1a; settings: simeprevir substituted with alternative inhibitor
Protocol: as §1, §2

[3] = tested on: HEK293 cells stably expressing the PRSIM-based kill switch; assay: Kill switch cell viability (phase contrast); assay type: cell-based, human; settings: 100 nM simeprevir
Protocol: (§3) Lentiviral particles encoding the kill switch fusion protein (SEQ ID NO: 223) or kill switch S196A mutant fusion protein (SEQ ID NO: 230) were generated using pPACKH1 HIV lentiviral packaging kit (Systems Bioscience), according to manufacturer's instructions. HEK293 cells were transduced for 24 h in the presence of 8 μg/ml polybrene after which cells were changed into fresh growth medium (DMEM+10% foetal bovine serum+1% Non-essential amino acids). 24 h later transduced cells were selected by addition of 2 μg/ml puromycin for 5 days. Before functional testing, transduced cell pools were FACS sorted based on GFP fluorescence to isolate high expressing cell line pools and single cell clones.
HEK293, HCT116 or HT29 cells stably expressing the PRSIM-based kill switch fusion protein (SEQ ID NO: 223) or HEK293 cells stably expressing the PRSIM kill switch S196A mutant fusion protein (SEQ ID NO: 230) were plated onto collagen-coated 96-well plates and 24 h later treated with 100 nM simeprevir. Phase contrast images were acquired at various timepoints using 10× or 20× objectives on an Incucyte Zoom (EssenBioscience).

[4] = tested on: Caspase 3 activity in kill switch-transduced HEK293 cells; assay: Kill switch Caspase 3 functional assay; assay type: cell-based, human; settings: relative to non-transduced cells
Protocol: as §3
Functional Caspase 9 activates Caspase 3, and this proteolytic activity can be determined using cleavage of non-fluorescent substrate DEVD-AMC into cleavage products DEVD and fluorescent AMC, such that AMC fluorescence signal at 430 nm is proportional to Caspase 3 activity. For the Caspase 3 assay, cells were plated in duplicate onto 6 well tissue-culture treated plates. […] Cells lysates were analysed in triplicate using a Caspase 3 assay from BD Biosciences according to manufacturer's instruction with the modification that total protein input was normalised to 50 μg by BCA assay (LifeTechnologies). Fluorescence was determined on an Envision plate reader (PerkinElmer), Ex: 380 nm, Em: 430 nm. […]

COc1ccc2c(O[C@@H]3C[C@H]4C(=O)N[C@]5(C(=O)NS(=O)(=O)C6CC6)C[C@H]5/C=C\CCCCN(C)C(=O)[C@@H]4C3)cc(-c3nc(C(C)C)cs3)nc2c1C [simeprevir]
induction of complex formation [1]: induction of complex formation was specific for simeprevir
induction of complex formation [2]: induction of complex formation was specific for simeprevir
cell killing ([3]; kill switch S196A): rapid cell killing in a timeframe comparable to the wt kill switch
cell death ([3]; wt kill switch): rapid cell death
Caspase 3 activity ([4]; 10 nM simeprevir 3 h, wt kill switch): significantly (p<0.0001) up-regulated; also recorded: significantly (p<0.0005) upregulated
Caspase 3 activity ([4]; 10 nM simeprevir, S196A mutant kill switch): significantly (p<0.0005) upregulated
